Test results published in publication PMC7865145, “Identification of existing pharmaceuticals and herbal medicines as inhibitors of SARS-CoV-2 infection” (Proceedings of the National Academy of Sciences of the …, 2021).
Structures can show the parent of a compound that is named as a salt. Where two headings read alike, the source gives them in different places.

Experiments:
SARS-CoV-2 [1] = experiment: Quantification of SARS-CoV-2 via antibody staining (viral NP protein) in Vero E6 cells; assay type: cell-based; settings: for IC50: viral titer by antinucleocapsid antibody
[2] = biological target: Papain-like protease (nsp3) of SARS-CoV-2 (Severe acute respiratory syndrome coronavirus 2, UniProt P0DTD1); experiment: biochemical; assay type: biochemical; settings: 100 uM, FRET-based enzymatic assay, 3 independent experiments, N.I. = no inhibition; for inhibition at 100 µM: read-out: Inhibition % at 100 uM of compounds, Papain-like protease (nsp3)
in vitro = settings: African green monkey, CC50 (μM); for CC50: Vero E6 cells
[3] = system: SARS-CoV-2 (hCoV-19/Taiwan/4/2020); experiment: microbe, parasite or virus in culture; assay type: cell-based; settings: for inhibition against SARS-CoV-2 in the cell-based screen: Vero E6, concentrations used in the screen (10, 3.3 and 1 μM); for block of viral infection in the cell-based assay (α-glucosidase inhibitors): tested conc. 100 μM (Fig. S4)
[4] = Cytotoxicity study of compounds with Vero E6 cells (CCK-8); settings: African green monkey, Vero E6 cells, CC50 (μM)
SARS-CoV-2 [5] = experiment: In vivo anti-SARS-CoV-2 assay, lung virus load; settings: female golden Syrian hamsters, intranasal infection day 0, oral twice a day 30 mg/kg/d for 3 d, n = 5
[6] = 100 PFU of SARS-CoV-2 (multiplicity of infection 0.025) in Vero E6 cells
[7] = Severe acute respiratory syndrome coronavirus 2, Vero C1008, 100 PFU of SARS-CoV-2 (multiplicity of infection 0.025) in Vero E6 cells
[8] = Severe acute respiratory syndrome coronavirus 2, Vero C1008, minimal dose that showed antiinfective effect after virus challenge, incubation 72 h (D3), Vero E6, read-out: CPE (μM) D3
[9] = minimal dose that showed antiinfective effect after virus challenge, incubation 120 h (D5), Vero E6, N.I. = no inhibition, dash = cytotoxicity was observed
[10] = Severe acute respiratory syndrome coronavirus 2, Vero C1008, minimal dose that showed antiinfective effect after virus challenge, incubation 120 h (D5), Vero E6, N.I. = no inhibition, dash = cytotoxicity was observed, read-out: CPE (μM) D5
[11] = Severe acute respiratory syndrome coronavirus 2, Vero C1008, 72 h, read-out: CPE (μM) D3
[12] = Severe acute respiratory syndrome coronavirus 2, Vero C1008, 120 h, […], N.I. = no inhibition, dash = cytotoxicity was observed, read-out: CPE (μM) D5

SMILES	IC50 (SARS-CoV-2 [1]; [6]) [µM]	IC50 (SARS-CoV-2 [1]; [7]) [µM]	Inhibition % at 100 uM of compounds, Papain-like protease (nsp3) [2]	minimal effective concentration [3, 8] [µM]	inhibition against SARS-CoV-2 in the cell-based screen [3]	other results
CC1=C(C(=O)OC(C)C)C(c2cccc([N+](=O)[O-])c2)C(C(=O)OC2CN(C(c3ccccc3)c3ccccc3)C2)=C(N)N1 (centres unmarked) [Azelnidipine 10, Azelnidipine]	5.3	5.29	N.I.	5	–	CC50 at 24 h (in vitro): 12.9 µM; CPE (μM) D5 [3, 9]: N.I.
CC(C)(C)NC(=O)N[C@H](C(=O)N1C[C@H]2[C@@H]([C@H]1C(=O)NC(CC1CCC1)C(=O)C(N)=O)C2(C)C)C(C)(C)C (some centres unmarked) [Boceprevir 2, Boceprevir]	50.1	> 50	N.I.	10	–	minimal effective concentration [3, 10]: 10 µM
COc1ccc2cc1Oc1ccc(cc1)C[C@H]1c3c(cc4c(c3Oc3cc5c(cc3OC)CCN(C)[C@@H]5C2)OCO4)CCN1C [Cepharanthine 4, Cepharanthine]	–	2.8	–	–	–	inhibition at 100 µM [2]: 31.9%; CC50 at 24 h (in vitro): 12.9 µM; minimal effective concentration [3, 11]: 3.75 µM; minimal effective concentration [3, 12]: 7.5 µM
CCCCc1oc2ccc(NS(C)(=O)=O)cc2c1C(=O)c1ccc(OCCCN(CCCC)CCCC)cc1 [Dronedarone 12, Dronedarone]	4.5	4.51	significant inhibition	7.5	–	inhibition at 100 µM [2]: 78.6%; CC50 at 24 h (in vitro): 12.1 µM; CPE (μM) D5 [3, 9]: N.I.
CC[C@H]1CN2CCc3cc(OC)c(OC)cc3[C@@H]2C[C@@H]1C[C@H]1NCCc2cc(OC)c(OC)cc21 [Emetine 5, Emetine]	0.0004	0.000397	–	–	–	CC50 (in vitro): > 10 µM; minimal effective concentration [3, 11]: 5 µM; minimal effective concentration [3, 12]: 10 µM
CC(C)(C)c1cc(C(C)(C)C)c(NC(=O)c2c[nH]c3ccccc3c2=O)cc1O [Ivacaftor 9, Ivacaftor]	–	3.7	N.I.	–	–	CC50 at 24 h [4]: 12.9 µM; minimal effective concentration [3, 11]: 5 µM; CPE (μM) D5 ([3]; […], N.I. = no inhibition, dash = cytotoxicity was observed): N.I.
CO[C@@H]1[C@@H](OC)[C@H](C)[C@@](O)(CC(=O)O)O[C@H]1[C@H](C)[C@H]1O[C@@]2(CC[C@@](C)([C@H]3CC[C@@](C)([C@@H]4O[C@@H]([C@H]5O[C@](C)(O)[C@H](C)C[C@@H]5C)C[C@@H]4O[C@@H]4C[C@H](OC)[C@@H](OC)[C@H](C)O4)O3)O2)C[C@H](O)[C@H]1C [Maduramicin 15, Maduramicin]	1.3	1.32	N.I.	–	–	selectivity index (antiviral effect vs cytotoxicity) (SARS-CoV-2 [1]; Vero E6, CC50 vs IC50): no selectivity; CC50 (in vitro): 6.39 µM; minimal effective concentration [3, 11]: 0.039 µM; minimal effective concentration [3, 12]: 0.117 µM
OC(c1cc(C(F)(F)F)nc2c(C(F)(F)F)cccc12)C1CCCCN1 (centres unmarked) [Mefloquine 8, Mefloquine]	3.2	3.24	N.I.	5	–	lung virus load vs control (drugs) (SARS-CoV-2 [5]): significantly reduced viral load; minimal effective concentration [3, 10]: 10 µM
CO/N=C1\C[C@]2(C[C@@H]3C[C@@H](C/C=C(\C)C[C@@H](C)/C=C/C=C4\CO[C@@H]5[C@H](O)C(C)=C[C@@H](C(=O)O3)[C@]45O)O2)O[C@H](/C(C)=C/C(C)C)[C@H]1C [Moxidectin 7, Moxidectin]	3.1	3.17	N.I.	5	–	cytotoxicity in the cell-based assay (Vero E6 cells): high cytotoxicity; CC50 (Vero E6 cells; African green monkey, 24 h): 6.9 µM; CC50 at 24 h (in vitro): 6.88 µM; minimal effective concentration [3, 10]: 10 µM
Cc1c(O)cccc1C(=O)N[C@@H](CSc1ccccc1)[C@H](O)CN1C[C@H]2CCCC[C@H]2C[C@H]1C(=O)NC(C)(C)C [Nelfinavir 1, Nelfinavir]	–	3.3	–	5	–	lung virus load vs control (drugs) (SARS-CoV-2 [5]): good antiviral effects; fold higher anti-SARS-CoV-2 activity than boceprevir in the cell-based assay (SARS-CoV-2 [1]; Vero E6): 15 fold; inhibition at 100 µM [2]: 3.5%; CC50 at 24 h [4]: 12.3 µM; minimal effective concentration [3, 10]: 10 µM
OC1(c2ccc(Cl)c(C(F)(F)F)c2)CCN(CCCC(c2ccc(F)cc2)c2ccc(F)cc2)CC1 [Penfluridol 11, Penfluridol]	2.4	2.41	N.I.	5	–	CC50 at 24 h [4]: 12.9 µM; minimal effective concentration [3, 10]: 10 µM
Nc1nc2nc[nH]c2c(=S)[nH]1 [Thioguanine 3, Thioguanine]	1.7	1.67	–	1.25	–	lung virus load vs control (drugs) (SARS-CoV-2 [5]): no significant antiinfective effect; CC50 at 24 h [4]: 25.4 µM; minimal effective concentration [3, 10]: 2.5 µM
O=C1Nc2ccc(Cl)cc2[C@@](C#CC2CC2)(C(F)(F)F)O1 [efavirenz]	–	–	–	–	no active compound was identified	–
C=C1[C@H](CO)[C@@H](O)C[C@@H]1n1cnc2c(=O)[nH]c(N)nc21 [entecavir]	–	–	–	–	no active compound was identified	–
CC(=O)OCC(CCn1cnc2cnc(N)nc21)COC(C)=O [famciclovir]	–	–	–	–	no active compound was identified	–
CC(C)(C)NC(=O)[C@@H]1CN(Cc2cccnc2)CCN1C[C@@H](O)C[C@@H](Cc1ccccc1)C(=O)N[C@H]1c2ccccc2C[C@H]1O [indinavir sulfate]	–	–	–	–	none of these showed inhibition	–
OCCN1C[C@H](O)[C@@H](O)[C@H](O)[C@H]1CO [miglitol]	–	–	–	–	–	block of viral infection in the cell-based assay (α-glucosidase inhibitors) ([3]; Vero E6): none was able to efficiently block the viral infection
Cc1ccnc2c1NC(=O)c1cccnc1N2C1CC1 [nevirapine]	–	–	–	–	no active compound was identified	–
Nc1nc2c(ncn2CCC(CO)CO)c(=O)[nH]1 [penciclovir]	–	–	–	–	no active compound was identified	–
NC(=O)c1ncn([C@@H]2O[C@H](CO)[C@@H](O)[C@H]2O)n1 [ribavirin]	–	–	–	–	no active compound was identified	–
CC(C)(C)NC(=O)[C@@H]1C[C@@H]2CCCC[C@@H]2CN1C[C@@H](O)[C@H](Cc1ccccc1)NC(=O)[C@H](CC(N)=O)NC(=O)c1ccc2ccccc2n1 [saquinavir mesylate]	–	–	–	–	none of these showed inhibition	–
Cc1cn([C@@H]2C[C@@H](O)[C@H](CO)O2)c(=O)[nH]c1=O [telbivudine]	–	–	–	–	no active compound was identified	–
CC(C)OC(=O)OCOP(=O)(CO[C@H](C)Cn1cnc2c(N)ncnc21)OCOC(=O)OC(C)C [tenofovir disoproxil fumarate]	–	–	–	–	no active compound was identified	–
OCC(CO)N[C@H]1C[C@](O)(CO)[C@@H](O)[C@H](O)[C@H]1O [voglibose]	–	–	–	–	–	block of viral infection in the cell-based assay (α-glucosidase inhibitors) ([3]; Vero E6): none was able to efficiently block the viral infection
Nc1ccn([C@H]2CC[C@@H](CO)O2)c(=O)n1 [zalcitabine]	–	–	–	–	no active compound was identified	–
